Measurements as given in patent US11351144B2, “Compounds for inhibiting secretory leukocyte protease inhibitor (SLPI)” (The General Hospital Corporation, priority 2017, dated 2022).
“Also recorded” adds a separate entry of the source.

What was measured:
[1] = test system: SLPI expression (luciferase plasmid driven by the SLPI promoter); assay: High-throughput screening: luciferase reporter driven by the SLPI promoter in MDA-MB-468 cells; assay type: cell-based, human; details: 0.31 to 5 μM (five concentrations), 24 hours
Text: Human triple-negative MDA-MB-231, LS174T, HEK293T and MCF-7 and MDA-MB 468 cell lines were obtained from the ATCC collection. MDA-MB-468 cells stably expressing luciferase plasmid driven by the SLPI promoter were used for high-throughput screening. To generate SLPI overexpressing cells, cancer cells were infected with pBabe-SLPI retroviruses containing the LTR promoter and puromycin resistant genes. The SLPI knockdown 4T1 cell line was established by lentiviral infection of 4T1 cells. Lentiviral particles were produced by transfecting 293T cells with two different shRNA clones that targeted SLPI (MISSION shRNA Sigma) and viral packages (VSVG,psPAX2) using FuGENE reagent (Promega, US). SLPI down-regulation was confirmed by using both q-PCR and ELISA.
After establishing that SLPI is a valid target for inhibiting TNBC metastasis, small molecules for use in inhibiting SLPI pharmacologically were screened. Human TNBC cell line MDA-MB-468 with a Luciferase plasmid driven by the SLPI promoter was used to perform high-throughput screening of a small-molecule library of 60,000 chemically-diverse compounds. Compounds (5 μM) were diluted in 100% DMSO, and spotted per well to 384-well plates using a Multimek 96/384 Channel Automated Pipetter. A cell-based readout system was used for compound selection. […] Selected compounds were also analyzed with 90% of SLPI repression. […]

MDA-MB-468 cancer cells = assay: MTT cell viability assay, MDA-MB-468; assay type: cell-based, human; details: MDA-MB-468 cells, 24 hours
4T1 cancer cells = assay: MTT cell viability assay, 4T1; assay type: cell-based, murine; details: 4T1 cells, 24 hours
[2] = test system: normal human umbilical vein endothelial cells (HUVEC); assay: MTT cell viability assay, HUVEC; assay type: cell-based; details: 24 hours
4T1 TNBC = assay: Orthotopic 4T1 TNBC tumor growth and spontaneous lung metastases in BALB/c mice; assay type: in vivo
Description: Next, we tested whether treatment with the selected SLPI inhibitor C74 would decrease metastasis in vivo. Parental and modified 4T1 cells were injected into the third mammary fat pad of 8-week-old female BALB/C mice, 10^5 cells in 20 μL of HANKS per injection. The growing tumors were then either resected at a certain size or left as is. In the latter case, the mice were treated daily with intraperitoneal (i.p.) delivery of 20 mg/kg of the selected compound suppressing SLPI (or vehicle), for 12 consecutive days starting from day 6 after tumor implantation, when tumors were ˜3.8 mm in diameter on average (see FIG. 3D). The mice were sacrificed either on day 21 post primary tumor resection or 17 days after compound treatment initiation. The lungs were removed and placed in Bouin's solution (Sigma). A few days later, the lung surface was examined under a stereomicroscope and the number and size of metastases were evaluated.

[3] = test system: retinoblastoma (Rb) tumor suppressor protein phosphorylation; assay: Western blot of Rb phosphorylation in MDA-MB-231 and MCF7 cells; assay type: cell-based, human
Description: Lysates from 293T, MDA-MB-231, MCF7 and 4T1 cells were prepared in lysis buffer containing Tris-HCl 50 mM/pH 7.4; NaCl 150 mM; NP-40 1%; SDS 0.1%; Na-deoxycholate 0.5%; EDTA 1 mM; plus 1% phosphatase inhibitor cocktails I and II (Sigma-Aldrich, US), and 1% protease inhibitor cocktail (Roche). Equal amounts of protein (50 μg/sample) were resolved by SDS-PAGE, transferred onto nitrocellulose membranes, and immunoblotted using the following primary antibodies: anti-SLPI, anti-RB (Cell Signaling and Santa Cruz Biotechnology, US), anti-SOD2, Aurora kinase, cyclin B1 and anti-β-catenin (Cell Signaling Technology). For co-IP assays, lysates were pre-cleared with IgG, and incubated with anti-SLPI, anti-RB or control IgG antibodies linked to Sepharose-A beads. Protein complexes were dissociated from beads and separated by SDS-PAGE. Immunodetection was performed by incubation with HRP-conjugated species-specific antibodies, followed by chemiluminescence detection (Perkin Elmer, US).

Rb-FoxM1 interaction = assay: Mammalian two-hybrid system, GAL4-Rb and VP16-FoxM1 in HEK293T cells; assay type: cell-based, human; details: 1.5 μg/mL added to cell media, time course
Text: For further verification of this interaction, a standard mammalian two-hybrid approach was used. The two genes encoding two of the three potentially interactive proteins of interest (Rb, SLPI and FoxM1) were cloned into pBIND and pACT vectors to generate fusion proteins with the DNA-binding domain of GAL4 and the activation domain of VP16. HEK293T cells were transiently transfected with a pG5luc luciferase reporter plasmid, pGAL4 and pVP16 fusion constructs. After two days, the transfected cells were lysed and the levels of luciferase were quantitated. Interaction between the two test proteins results in an increase in luciferase expression over the negative controls that included pBIND and pACT vectors. The pairs of fusion proteins GAL4-Rb plus VP16-SLPI induced activation of the reporter construct about 7 times more than the negative controls, as shown in FIG. 4C.

[4] = test system: FoxM1 binding to the MMP2 promoter; assay: Electrophoretic mobility shift assay, FoxM1 binding to MMP2 promoter probe; assay type: cell-based, human; details: protein extracts from treated MDA-MB-231 cells versus untreated cells
Description: To directly test the ability of SLPI to modify FoxM1 binding to another target gene, MMP2, we used the electrophoretic mobility shift assay. Electrophoretic mobility shift assays (EMSAs) were performed following manufacture protocol using kit from Thermo Fisher. Double-stranded oligonucleotides from MMP2 promoter with FoxM1 binding site were used: 5′-[…]-3′ (SEQ ID NO: 1). End-labelled DNA was detected using streptavidin-conjugated horseradish peroxidase. For the supershift assay, antibody against FoxM1 (Cell Signaling) was added to the binding reaction for 1 hour on ice.
The MMP2 promoter sequence comprising the FoxM1-binding site (−662 to −671 bp) was biotin-labeled and used as a probe for the protein binding gene promoter region (see e.g., Dai et al, Oncogene, 2007, 26:6212-6219). The probe was incubated with protein extracts from SLPI-treated MDA-MB-231 cells and untreated cells. […] The binding of this protein to the probe was sequence-specific, as it was blocked by competition with an unlabeled FoxM1 oligomer. To confirm that FoxM1 bound to MMP2 promoter in the presence of SLPI, a supershift assay was performed by adding FoxM1-binding antibody to that protein-DNA complex. The enhanced probe retardation is shown in lane 5 in FIG. 6A.

[5] = 20 mg/kg i.p. daily for 12 days, lungs evaluated on day 23

| changes in mouse weight, appearance, or behavior (4T1 TNBC; 20 mg/kg i.p. daily for 12 days) | Molecule | SLPI expression quantified using luciferase activity driven by the SLPI promoter [1] | toxic effect (cell viability, MTT assay) (MDA-MB-468 cancer cells) | toxic effect (cell viability, MTT assay) (4T1 cancer cells) | toxic effect (cell viability, MTT assay) [2] | decrease of total number of lung metastases (4T1 TNBC; [5]) | size of lung metastatic colonies (4T1 TNBC; [5]) | primary tumor growth (tumor diameter) (4T1 TNBC; 4T1 in mammary fat pad, 20 mg/kg i.p. daily for 12 days from day 6, 20 mg/kg) | Rb phosphorylation (phospho-Rb Western blot) ([3]; 1 μM for 16 h) | Rb phosphorylation (phospho-Rb Western blot) ([3]; recombinant protein 1.5 μg/mL, as early as 1-2 h post treatment) | reporter construct activation (Rb-FoxM1 binding) (Rb-FoxM1 interaction) | binding activity of FoxM1 to MMP2 promoter probe [4] |
| --- | --- | --- | --- | --- | --- | --- | --- | --- | --- | --- | --- | --- |
| did not cause changes | CCCOC(=O)c1cccc(NC(=O)COc2ccccc2Cl)c1 [Compound C74, propyl 3-(2-(2-chlorophenoxy)acetamido)benzoate] | inhibition of SLPI expression; also recorded: Dose dependence of SLPI repression was confirmed | no toxic effect | no toxic effect | no toxic effect | 50% | much smaller | suppressed tumor growth and metastasis; also recorded: small, progressive inhibition of primary tumor growth | repressed Rb phosphorylation; also recorded: decreased phosphorylation of Rb | – | – | – |
| – | recombinant SLPI protein: recombinant secretory leukocyte protease inhibitor protein added to cells at 1.5 μg/mL (protein, UniProt P03973 26-132, looked up) Antileukoproteinase: SGKSFKAGVCPPKKSAQCLRYKKPECQSDWQCPGKKRCCPDTCGIKCLDPVDTPNPTRRKPGKCPVTYGQCLMLNPPNFCEMDGQCKRDLKCCMGMCGKSCVSPVKA | – | – | – | – | – | – | – | – | increased phosphorylation of Rb | progressive decrease of reporter construct activation | substantial increase in binding activity of FoxM1 |
